# Experimental data as given in PMC3140712 (2011).
# Counter-ions that a name gives are not always drawn.
# Target: P2Y1 receptor (Homo sapiens, UniProt P47900)
# Assay: intracellular calcium mobilization
# Assay type: cell-based
# Sequence of P2Y1 receptor (P47900 whole entry): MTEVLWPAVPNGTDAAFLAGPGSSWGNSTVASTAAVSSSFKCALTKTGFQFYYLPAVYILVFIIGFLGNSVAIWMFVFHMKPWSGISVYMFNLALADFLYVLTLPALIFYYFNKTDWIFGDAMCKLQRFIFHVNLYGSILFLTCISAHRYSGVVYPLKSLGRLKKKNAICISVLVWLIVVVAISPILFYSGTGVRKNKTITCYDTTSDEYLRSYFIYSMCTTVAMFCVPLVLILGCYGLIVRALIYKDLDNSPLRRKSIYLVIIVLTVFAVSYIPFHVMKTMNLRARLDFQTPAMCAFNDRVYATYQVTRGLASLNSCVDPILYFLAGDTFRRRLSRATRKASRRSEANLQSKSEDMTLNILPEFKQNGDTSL
compound,measurement,value
"CSc1nc(N)c2ncn([C@H]3[C@H](O)[C@H](O)[C@]4(COP(=O)(O)OP(=O)(O)O)C[C@H]34)c2n1 [MRS2365, [[(1R,2R,3S,4R,5S)-4-[6-amino-2-(methylthio)-9H-purin-9-yl]-2,3-dihydroxybicyclo[3.1.0]hex-1-yl]methyl] diphosphoric acid mono ester trisodium salt]",EC50,5.28 ± 1.96 nM
